ChEMBL document CHEMBL6078677, “Discovery and optimization of tetrahydroacridine derivatives as a novel class of antibiotics against multidrug-resistant Gram-positive pathogens by targeting type I signal peptidase and disrupting bacterial membrane” (Eur J Med Chem, 2025)
Converted amounts (≈) assume the structure as drawn.

What was measured:
Klebsiella pneumoniae = test: Antimicrobial activity against Klebsiella pneumoniae 9-1 assessed as inhibition of visible growth of bacteria incubated for 20 hrs by broth microdilution method; type: functional
Salmonella enteritidis = test: Antimicrobial activity against Salmonella enteritis S1 assessed as inhibition of visible growth of bacteria incubated for 20 hrs by broth microdilution method; type: functional, Salmonella enterica subsp. enterica serovar Enteritidis; settings: Salmonella enterica
Pseudomonas aeruginosa [1] = test: Antimicrobial activity against Pseudomonas aeruginosa PA14 assessed as inhibition of visible growth of bacteria incubated for 20 hrs by broth microdilution method; type: functional
Acinetobacter baumannii [2] = test: Antimicrobial activity against Acinetobacter baumannii AB11 assessed as inhibition of visible growth of bacteria incubated for 20 hrs by broth microdilution method; type: functional
Acinetobacter baumannii [3] = test: Antimicrobial activity against Acinetobacter baumannii 7979 assessed as inhibition of visible growth of bacteria incubated for 20 hrs by broth microdilution method; type: functional
Escherichia coli = test: Antimicrobial activity against Escherichia coli ATCC 25922 assessed as inhibition of visible growth of bacteria incubated for 20 hrs by broth microdilution method; type: functional
Pseudomonas aeruginosa [4] = test: Antimicrobial activity against Pseudomonas aeruginosa PA01 assessed as inhibition of visible growth of bacteria incubated for 20 hrs by broth microdilution method; type: functional
Enterococcus faecium [5] = test: Antimicrobial activity against Enterococcus faecium QF31 harboring erythromycin resistance rRNA methylase B and chloramphenicol-florfenicol resistance methylase assessed as inhibition of visible growth of bacteria incubated for 20 hrs by broth microdilution method; type: functional
Staphylococcus aureus [6] = test: Antimicrobial activity against Staphylococcus aureus ATCC 29213 assessed as inhibition of visible growth of bacteria incubated for 20 hrs by broth microdilution method; type: functional
Streptococcus suis [7] = test: Antimicrobial activity against Streptococcus suis P1/7 assessed as inhibition of visible growth of bacteria incubated for 20 hrs by broth microdilution method; type: functional
Signal peptidase I = Signal peptidase I (Escherichia coli K-12, UniProt P00803); test: Binding affinity to recombinant 6His-tagged Escherichia coli LepB (77 to 324 residues) extracted from Escherichia coli BL21 (DE3) cells assessed as dissociation constant by MST analysis
Sequence of Signal peptidase I (P00803 whole entry, the tested form may be a part): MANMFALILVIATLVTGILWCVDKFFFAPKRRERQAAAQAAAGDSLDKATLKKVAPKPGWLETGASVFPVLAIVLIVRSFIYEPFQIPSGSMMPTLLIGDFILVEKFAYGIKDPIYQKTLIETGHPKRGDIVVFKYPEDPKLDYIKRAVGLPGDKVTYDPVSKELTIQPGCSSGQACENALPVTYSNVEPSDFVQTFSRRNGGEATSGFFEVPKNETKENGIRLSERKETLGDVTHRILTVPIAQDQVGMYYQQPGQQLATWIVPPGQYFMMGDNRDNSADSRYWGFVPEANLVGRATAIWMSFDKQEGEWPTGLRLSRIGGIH

Enterococcus faecalis [8] = test: microbe, parasite or virus in culture; type: functional; settings: SF23-1, time 20 hrs
Description: Antimicrobial activity against Enterococcus faecalis SF23-1 harboring erythromycin-resistance rRNA methylase B, tetracycline efflux protein L and chloramphenicol-florfenicol resistance methylase assessed as inhibition of visible growth of bacteria incubated for 20 hrs by broth microdilution method

Streptococcus pyogenes = test: Antimicrobial activity against Streptococcus pyogenes DL02 harboring erythromycin-resistance rRNA methylase B assessed as inhibition of visible growth of bacteria incubated for 20 hrs by broth microdilution method; type: functional
Staphylococcus aureus [9] = test: Antimicrobial activity against Staphylococcus aureus YZSA-15 harboring erythromycin resistance rRNA methylase C and vancomycin resistance locus assessed as inhibition of visible growth of bacteria incubated for 20 hrs by broth microdilution method; type: functional
Enterococcus faecium [10] = test: Antimicrobial activity against Enterococcus faecium MC38 harboring erythromycin resistance rRNA methylase B and oxazolidinone-phenicol transferable resistance gene assessed as inhibition of visible growth of bacteria incubated for 20 hrs by broth microdilution method; type: functional
Enterococcus faecium [11] = test: Antimicrobial activity against Enterococcus faecium HFY01 assessed as inhibition of visible growth of bacteria incubated for 20 hrs by broth microdilution method; type: functional
Staphylococcus aureus [12] = test: microbe, parasite or virus in culture; type: functional; settings: M147-2, time 20 hrs
Description: Antimicrobial activity against Staphylococcus aureus M147-2 harboring erythromycin resistance rRNA methylase B, tetracycline efflux protein L and chloramphenicol-florfenicol resistance methylase assessed as inhibition of visible growth of bacteria incubated for 20 hrs by broth microdilution method

Enterococcus faecalis [13] = test: Antimicrobial activity against Enterococcus faecalis J2 harboring erythromycin-resistance rRNA methylase B and oxazolidinone phenicol transferable resistance gene assessed as inhibition of visible growth of bacteria incubated for 20 hrs by broth microdilution method; type: functional
Staphylococcus aureus [14] = test: microbe, parasite or virus in culture; type: functional; settings: M92-1, time 20 hrs
Description: Antimicrobial activity against Staphylococcus aureus M92-1 harboring erythromycin resistance rRNA methylase B, tetracycline efflux protein L and oxazolidinone-phenicol transferable resistance gene assessed as inhibition of visible growth of bacteria incubated for 20 hrs by broth microdilution method

Staphylococcus aureus [15] = test: Antimicrobial activity against Staphylococcus aureus YZSA-21 harboring erythromycin resistance rRNA methylase C assessed as inhibition of visible growth of bacteria incubated for 20 hrs by broth microdilution method; type: functional
Enterococcus faecalis [16] = test: Antimicrobial activity against Enterococcus faecalis JH2-2 assessed as inhibition of visible growth of bacteria incubated for 20 hrs by broth microdilution method; type: functional
Staphylococcus aureus [17] = test: Antimicrobial activity against Staphylococcus aureus YZSA-24 harboring erythromycin resistance rRNA methylase C and methicillin resistance gene resistance locus assessed as inhibition of visible growth of bacteria incubated for 20 hrs by broth microdilution method; type: functional
Streptococcus agalactiae = test: Antimicrobial activity against Streptococcus agalactiae DL03 harboring erythromycin-resistance rRNA methylase B assessed as inhibition of visible growth of bacteria incubated for 20 hrs by broth microdilution method; type: functional
Enterococcus faecalis [18] = test: Antimicrobial activity against Enterococcus faecalis ES01 harboring erythromycin-resistance rRNA methylase B and vanB-type vancomycin-resistance locus assessed as inhibition of visible growth of bacteria incubated for 20 hrs by broth microdilution method; type: functional
Streptococcus suis [19] = test: microbe, parasite or virus in culture; type: functional; settings: SH0918, time 20 hrs
Description: Antimicrobial activity against Streptococcus suis SH0918 harboring erythromycin-resistance rRNA methylase B, tetracycline efflux protein O and oxazolidinone phenicol transferable resistance gene assessed as inhibition of visible growth of bacteria incubated for 20 hrs by broth microdilution method

| SMILES | MIC (Klebsiella pneumoniae) | MIC (Salmonella enteritidis) | MIC (Pseudomonas aeruginosa [1]) | MIC (Acinetobacter baumannii [2]) | MIC (Acinetobacter baumannii [3]) | MIC (Escherichia coli) | MIC (Pseudomonas aeruginosa [4]) | MIC (Enterococcus faecium [5]) | MIC (Staphylococcus aureus [6]) | MIC (Streptococcus suis [7]) | MIC (Enterococcus faecalis [8]) | MIC (Streptococcus pyogenes) | MIC (Staphylococcus aureus [9]) | MIC (Enterococcus faecium [10]) | MIC (Enterococcus faecium [11]) | MIC (Staphylococcus aureus [12]) | MIC (Enterococcus faecalis [13]) | MIC (Staphylococcus aureus [14]) | MIC (Staphylococcus aureus [15]) | MIC (Enterococcus faecalis [16]) | other results |
| --- | --- | --- | --- | --- | --- | --- | --- | --- | --- | --- | --- | --- | --- | --- | --- | --- | --- | --- | --- | --- | --- |
| C[C@@H](O)[C@H]1C(=O)N2C(C(=O)O)=C(S[C@@H]3CN[C@H](C(=O)N(C)C)C3)[C@H](C)[C@H]12 [MEROPENEM] | 4 µg/mL (≈ 10.4 µM) | 0.25 µg/mL (≈ 0.652 µM) | 0.5 µg/mL (≈ 1.3 µM) | < 0.06 µg/mL | > 32 µg/mL | 0.25 µg/mL (≈ 0.652 µM) | 0.5 µg/mL (≈ 1.3 µM) |  |  |  |  |  |  |  |  |  |  |  |  |  |  |
| CC1C/C(=C\c2ccc(-c3cccc(Cl)c3)o2)c2nc3ccccc3c(C(=O)O)c2C1 (racemic) |  |  |  |  |  |  |  | 16 µg/mL (≈ 37.2 µM) | 8 µg/mL (≈ 18.6 µM) | 32 µg/mL (≈ 74.4 µM) | > 64 µg/mL |  |  |  |  |  |  |  |  |  | Kd (Signal peptidase I): 42.1 µM |
| C[C@H]1c2cccc(O)c2C(=O)C2=C(O)[C@]3(O)C(=O)C(C(N)=O)=C(O)[C@@H](N(C)C)[C@@H]3[C@@H](O)[C@@H]21 [DOXYCYCLINE ANHYDROUS] | > 32 µg/mL | > 32 µg/mL | 16 µg/mL (≈ 36 µM) | < 0.06 µg/mL | > 32 µg/mL | 1 µg/mL (≈ 2.25 µM) | 8 µg/mL (≈ 18 µM) | 16 µg/mL (≈ 36 µM) | 0.25 µg/mL (≈ 0.563 µM) | 0.125 µg/mL (≈ 0.281 µM) | 16 µg/mL (≈ 36 µM) | 2 µg/mL (≈ 4.5 µM) | 0.25 µg/mL (≈ 0.563 µM) | 16 µg/mL (≈ 36 µM) | < 0.06 µg/mL | > 32 µg/mL | 8 µg/mL (≈ 18 µM) | > 32 µg/mL | 0.25 µg/mL (≈ 0.563 µM) | 4 µg/mL (≈ 9 µM) | MIC (Staphylococcus aureus [17]): 0.5 µg/mL (≈ 1.13 µM); MIC (Streptococcus agalactiae): < 0.06 µg/mL; MIC (Enterococcus faecalis [18]): 2 µg/mL (≈ 4.5 µM); MIC (Streptococcus suis [19]): 16 µg/mL (≈ 36 µM) |
| CC[C@H]1OC(=O)[C@H](C)[C@@H](O[C@H]2C[C@@](C)(OC)[C@@H](O)[C@H](C)O2)[C@H](C)[C@@H](O[C@@H]2O[C@H](C)C[C@H](N(C)C)[C@H]2O)[C@](C)(O)C[C@@H](C)C(=O)[C@H](C)[C@@H](O)[C@]1(C)O [ERYTHROMYCIN] |  |  |  |  |  |  |  | > 32 µg/mL | 1 µg/mL (≈ 1.36 µM) | 0.125 µg/mL (≈ 0.17 µM) | > 32 µg/mL | > 32 µg/mL | > 32 µg/mL | > 32 µg/mL | 2 µg/mL (≈ 2.73 µM) | > 32 µg/mL | > 32 µg/mL | > 32 µg/mL | > 32 µg/mL | 0.25 µg/mL (≈ 0.341 µM) | MIC (Staphylococcus aureus [17]): > 32 µg/mL; MIC (Streptococcus agalactiae): > 32 µg/mL; MIC (Enterococcus faecalis [18]): > 32 µg/mL; MIC (Streptococcus suis [19]): > 32 µg/mL |
| CCC[C@@H]1C[C@@H](C(=O)N[C@@H]([C@H]2O[C@H](SC)[C@H](O)[C@@H](O)[C@H]2O)[C@H](C)Cl)N(C)C1 [CLINDAMYCIN] | > 32 µg/mL | > 32 µg/mL | > 32 µg/mL | 0.5 µg/mL (≈ 1.18 µM) | > 32 µg/mL | > 32 µg/mL | > 32 µg/mL | > 32 µg/mL | 0.125 µg/mL (≈ 0.294 µM) | 0.125 µg/mL (≈ 0.294 µM) | > 32 µg/mL | > 32 µg/mL | > 32 µg/mL | > 32 µg/mL | 0.5 µg/mL (≈ 1.18 µM) | > 32 µg/mL | > 32 µg/mL | > 32 µg/mL | > 32 µg/mL | 0.5 µg/mL (≈ 1.18 µM) | MIC (Staphylococcus aureus [17]): > 32 µg/mL; MIC (Streptococcus agalactiae): > 32 µg/mL; MIC (Enterococcus faecalis [18]): > 32 µg/mL; MIC (Streptococcus suis [19]): > 32 µg/mL |
| CO[C@@]1(NC(=O)Cc2cccs2)C(=O)N2C(C(=O)O)=C(COC(N)=O)CS[C@@H]21 [CEFOXITIN] | > 32 µg/mL | 32 µg/mL (≈ 74.9 µM) | > 32 µg/mL | 16 µg/mL (≈ 37.4 µM) | > 32 µg/mL | 0.25 µg/mL (≈ 0.585 µM) | > 32 µg/mL | > 32 µg/mL | 1 µg/mL (≈ 2.34 µM) | 1 µg/mL (≈ 2.34 µM) | > 32 µg/mL | 1 µg/mL (≈ 2.34 µM) | 2 µg/mL (≈ 4.68 µM) | > 32 µg/mL | 8 µg/mL (≈ 18.7 µM) | 4 µg/mL (≈ 9.36 µM) | > 32 µg/mL | 4 µg/mL (≈ 9.36 µM) | 4 µg/mL (≈ 9.36 µM) | > 32 µg/mL | MIC (Staphylococcus aureus [17]): 32 µg/mL (≈ 74.9 µM); MIC (Streptococcus agalactiae): 16 µg/mL (≈ 37.4 µM); MIC (Enterococcus faecalis [18]): > 32 µg/mL; MIC (Streptococcus suis [19]): 8 µg/mL (≈ 18.7 µM) |
